Test results reported in US7968522B2, “Treatment and prophylaxis of sepsis and septic shock” (Polytechnic Institute of NYU, priority 2003, dated 2011).
Entries after “also recorded” stand apart in the source; their conditions may differ.

Tested on: RAW 264.7 cells
Test: LPS-induced NO production (nitrite, Griess reaction) in mouse macrophages
Assay type: cell-based
Conditions: for effect on LPS-induced NO production: varying concentrations, added 1.5 h before, after or simultaneously with LPS
Method: As nitric oxide production is a useful marker of macrophage response to bacterial LPS, the in vitro model system is a valuable tool for examining the modulating effects of sophorolipids on LPS-induced macrophage responses under controlled conditions. Mouse macrophages (RAW 264.7, ATCC) were incubated in the presence of LPS (Salmonella typhimurium, Sigma #6511) (50 ng/ml, an optimal dose for inducing NO production), and varying concentrations of sophorolipids (SL, natural mixture), sophorolipid diethyl ester (E), and corresponding sophorolipid diacetate (K). Sophorolipids were added 1.5 hours before, 1.5 hours after, or simultaneously with LPS. Aliquots of culture supernatants were collected after 5 days and NO content was determined by measuring nitrite (modified Griess reaction). Briefly, triplicate 50 μl aliquots of the culture supernatant were mixed in wells of a 96-well microtiter plate with 100 μl of Griess reagent containing a 1:1 (vol/vol) mixture of 1% (wt/vol) sulfanilamide in 30% acetic acid and 0.5% (wt/vol) of N-(-1-Naphthyl)ethylenediamine dihydrochloride in 60% acetic acid. Chromophore generated by the reaction with nitrite was detected spectrophotometrically (550 nm) using a microtiterplate reader (ELx 800, BioTek Instruments, Winooski, Vt.). The concentration of nitrite was calculated by using calibration with known concentrations of NaNO2.
This in vitro model system made it possible to examine in detail the effects of sophorolipids on LPS induced NO production as a marker of the acute inflammatory pathway that leads to septic shock in vivo. NO production appeared to depend on the sequence of addition of sophorolipids relative to LPS. The in vitro effects were most pronounced when sophorolipids were introduced either before or simultaneously with LPS.

SMILES: CCOC(=O)CCCCCCC/C=C\CCCCCCC(C)O[C@@H]1O[C@H](CO)[C@@H](O)[C@H](O)[C@H]1O[C@@H]1O[C@H](CO)[C@@H](O)[C@H](O)[C@H]1O (relative stereo) [E, Ethyl 17-L-[(2′-O-β-D-glucopyranosyl-β-D-glucopyranosyl)-oxy]-cis-9-octadecenoate]
- rating of the potency of inhibitory activities on LPS induced NO production (RAW 264.7 cells, LPS 50 ng/ml): E>SL>K; also recorded: least inhibitory and the most variable effects
- inhibition of LPS-induced NO production (plateau / maximum) (at 25 ng/ml, LPS 50 ng/ml, RAW 264.7 cells, supernatants after 5 days): 60-65%
- effect on LPS-induced NO production: inhibited LPS-induced NO production in a dose- and time-dependent manner

SMILES: CCOC(=O)CCCCCCC/C=C\CCCCCCC(C)O[C@@H]1O[C@H](COC(C)=O)[C@@H](O)[C@H](O)[C@H]1O[C@@H]1O[C@H](COC(C)=O)[C@@H](O)[C@H](O)[C@H]1O (relative stereo) [K, Ethyl 17-L[(2′-O-β-D glucopyranosyl-β-D-glucopyranosyl)-oxy]-cis-9-octadecenoate 6′,6″-diacetate]
- rating of the potency of inhibitory activities on LPS induced NO production (RAW 264.7 cells, LPS 50 ng/ml): E>SL>K
- effect on LPS-induced NO production: inhibited LPS-induced NO production in a dose- and time-dependent manner
